Results reported in patent US20260364030A1, “NOVEL SELECTIVE INHIBITORS OF LYSYL OXIDASES” (Syntara Limited, priority 2022, published 2026).

Experiments:
lysyl oxidase = conditions: various models (e.g. CCl4, bleomycin, quartz, cancer) and tissues (e.g. liver, lung and dermis); cited from earlier work
[1] = system: massive, pedunculated keloids; conditions: BAPN or penicillamine, and colchicine; following excision of keloid and grafting; cited from earlier work
Human DAO = target: T1, Human DAO (Homo sapiens, UniProt P19801); test: Inhibition of human recombinant DAO; format: biochemical; conditions: 2 hours incubation; substrate putrescine 200 μM
T1 construct: Prof; Boehm, Department of Clinical Pharmacology, Medical University, Vienna (gift)
T1 sequence (P19801 20-751): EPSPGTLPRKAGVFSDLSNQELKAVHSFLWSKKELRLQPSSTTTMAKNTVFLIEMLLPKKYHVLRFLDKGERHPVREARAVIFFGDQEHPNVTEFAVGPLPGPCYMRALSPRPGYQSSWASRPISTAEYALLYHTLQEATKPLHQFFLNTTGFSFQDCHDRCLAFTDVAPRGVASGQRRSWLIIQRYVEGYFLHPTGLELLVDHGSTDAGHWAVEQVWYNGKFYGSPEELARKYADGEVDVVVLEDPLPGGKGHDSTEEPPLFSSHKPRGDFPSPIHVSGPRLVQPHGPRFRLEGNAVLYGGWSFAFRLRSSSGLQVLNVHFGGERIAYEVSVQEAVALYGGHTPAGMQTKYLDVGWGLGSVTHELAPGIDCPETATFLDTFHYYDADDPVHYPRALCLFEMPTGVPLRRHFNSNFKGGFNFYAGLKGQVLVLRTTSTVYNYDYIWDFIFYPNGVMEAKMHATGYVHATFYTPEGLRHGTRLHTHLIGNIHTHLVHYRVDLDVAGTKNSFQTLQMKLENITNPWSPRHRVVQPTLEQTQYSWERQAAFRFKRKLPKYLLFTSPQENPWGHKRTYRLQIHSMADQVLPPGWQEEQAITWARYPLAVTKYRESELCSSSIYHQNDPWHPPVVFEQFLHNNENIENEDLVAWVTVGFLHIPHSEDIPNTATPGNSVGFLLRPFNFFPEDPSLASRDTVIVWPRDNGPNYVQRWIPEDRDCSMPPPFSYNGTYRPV

LOXL1 = target: T2, LOXL1 (Homo sapiens, UniProt Q08397); test: Time-dependent inhibition of LOXL1, Amplex Red oxidation assay; format: biochemical; conditions: for IC50: 37 °C
T2 sequence (Q08397 96-574): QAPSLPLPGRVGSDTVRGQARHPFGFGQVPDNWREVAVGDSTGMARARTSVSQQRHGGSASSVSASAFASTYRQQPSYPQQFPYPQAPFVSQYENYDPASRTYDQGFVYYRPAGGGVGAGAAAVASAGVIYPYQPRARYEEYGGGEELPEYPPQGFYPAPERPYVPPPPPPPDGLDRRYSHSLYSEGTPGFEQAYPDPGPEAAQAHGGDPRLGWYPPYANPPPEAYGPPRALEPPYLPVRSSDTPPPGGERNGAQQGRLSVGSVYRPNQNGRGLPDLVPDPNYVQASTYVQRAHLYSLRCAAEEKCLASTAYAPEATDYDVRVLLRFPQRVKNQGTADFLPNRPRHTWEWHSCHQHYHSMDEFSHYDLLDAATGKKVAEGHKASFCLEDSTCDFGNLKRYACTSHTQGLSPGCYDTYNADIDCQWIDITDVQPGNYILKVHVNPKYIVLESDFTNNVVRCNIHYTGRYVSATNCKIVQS
Method: The time dependent inhibitory effects of the Compound 1 of the present invention were tested against the given LOXL1 preparation and LOXL2 preparation using a method based on the detection of hydrogen peroxide with an Amplex Red oxidation assay [Zhou et al. 1997]. The assay was developed for use in either 384 or 96 well format. Briefly, in a standard black, clear bottom 384 well plate assay 25 µL of a dilution of any of the isoenzymes and orthologues in 1.2 M urea, 50 mM sodium borate buffer (pH 8.2) were added into each well in the presence of […] and 0.5 mM pargyline (to inhibit SSAO and MAO-B and MAO-A, respectively; not necessary if the enzyme is from a recombinant or purified form). Test compound (Compound 1) was dissolved in DMSO and tested in a Concentration Response Curve (CRC) with 11 data points, typically in the micromolar or nanomolar range after incubation with the enzyme for different time points at 37 °C. 25 μL of a reaction mixture containing twice the KM concentration of putrescine (Sigma Aldrich, e.g. 20 mM for LOXL1 or 10 mM for LOXL2), 120 µM Amplex Red (Thermo Fisher Scientific) and 1.5 U/mL horseradish peroxidase (Sigma Aldrich) prepared in 1.2 M urea, 50 mM sodium borate buffer (pH 8.2) were then added to the corresponding wells. The fluorescence (RFU) was read every 2.5 min for 30 min at 37 °C, excitation 544 nm and emission 590 nm (Optima; BMG labtech). The slope/min of the kinetics for each well was calculated using MARS data analysis software (BMG labtech) and this value was used to deduce the IC50 value (Dotmatics).

[2] = target: T3, Human recombinant SSAO/VAP-1 (Homo sapiens, UniProt Q16853); test: Inhibition of human recombinant SSAO/VAP-1, fluorescent Amplex Red assay; format: biochemical; conditions: 30 min incubation at 37 °C; benzylamine 600 μM in reaction mixture
T3 construct: a cloned cDNA template corresponding to residues 34-763 of human SSAO/VAP-1; TEV cleavage site (N); made in house; host or cells: CHO-K1 glycosylation mutant cell line, Lee 8 (vector assembled by Geneart AG)
T3 sequence (Q16853 34-763): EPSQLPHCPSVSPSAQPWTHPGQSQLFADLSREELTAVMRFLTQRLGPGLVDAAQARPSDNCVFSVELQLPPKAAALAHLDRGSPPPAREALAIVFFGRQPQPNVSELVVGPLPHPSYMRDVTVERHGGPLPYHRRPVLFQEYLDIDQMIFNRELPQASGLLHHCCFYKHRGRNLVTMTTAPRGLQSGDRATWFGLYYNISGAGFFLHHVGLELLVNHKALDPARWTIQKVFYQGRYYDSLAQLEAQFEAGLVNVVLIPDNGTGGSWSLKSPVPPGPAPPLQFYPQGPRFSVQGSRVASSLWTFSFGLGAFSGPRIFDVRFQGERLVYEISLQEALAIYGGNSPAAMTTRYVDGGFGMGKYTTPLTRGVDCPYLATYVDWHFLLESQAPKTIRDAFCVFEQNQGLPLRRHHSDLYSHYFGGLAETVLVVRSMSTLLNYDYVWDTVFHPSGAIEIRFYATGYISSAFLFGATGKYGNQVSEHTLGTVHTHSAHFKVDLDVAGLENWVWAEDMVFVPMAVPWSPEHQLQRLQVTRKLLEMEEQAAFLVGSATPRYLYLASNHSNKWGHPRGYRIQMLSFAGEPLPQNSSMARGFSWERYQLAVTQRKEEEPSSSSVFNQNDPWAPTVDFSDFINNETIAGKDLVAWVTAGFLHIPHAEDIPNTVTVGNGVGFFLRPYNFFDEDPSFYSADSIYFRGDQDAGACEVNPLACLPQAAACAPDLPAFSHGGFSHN
Method: Human recombinant SSAO/VAP-1 amine oxidase activity was determined using the coupled colorimetric method as described for monoamine oxidase, copper-containing amine oxidases and related enzymes [Holt A. and Palcic M., 2006]. Briefly, a cloned cDNA template corresponding to residues 34-763 of human SSAO/VAP-1, and incorporating a mouse Ig kappa (κ) signal sequence, N-terminal flag epitope tag and tobacco etch virus (TEV) cleavage site, was assembled in a mammalian expression vector (pLO-CMV) by Geneart AG. This vector containing human SSAO/VAP-1 residues was transfected into CHO-K1 glycosylation mutant cell line, Lee 8. A clone stably expressing human SSAO/VAP-1 was isolated and cultured in large scale. Active human SSAO/VAP-1 was purified and recovered using immunoaffinity chromatography. This was used as the source for SSAO/VAP-1 activity. A high-throughput fluorescent assay was developed using either 96 or 384 well format. Briefly, in a standard 384 well plate assay 25 μL of purified human SSAO/VAP-1 (0.25 μg/mL) in 0.1 M sodium phophate buffer (pH 7.4) was added into each well. […] The fluorescence unit (RFU) was read every 2.5 min for 30 min at 37 °C excitation 544 nm and emission 590 (Optima; BMG labtech). The slope/min of the kinetics for each well was calculated using MARS data analysis software (BMG labtech) and this value was used to deduce the IC50 value (Dotmatics).

[3] = system: Salmonella typhimurium TA100; test: Bacterial reverse mutation test, preliminary toxicity test (direct plate incorporation)
Method: In the preliminary toxicity test, for selection of test doses for the mutation assay, Salmonella typhimurium, TA100 was exposed to the test item at 39.0625, 78.125, 156.25, 312.5, 625, 1250, 2500 and 5000 μg/plate along with a DMSO control using direct plate incorporation.

[4] = Diffusion through human skin, Franz diffusion cell; format: in vitro ADME; conditions: topical formulation containing 2% Compound 1
Source text: Skin permeability is essential when considering topical application to treat skin conditions. One way to evaluate skin permeability is to use a Franz diffusion cell system with human skin as a membrane (Particle Sciences; Technical Brief 2009; Vol. 10). The donor compound (Compound 1), topically formulated, is applied on the top chamber and diffusion through the skin is monitored at relevant time points by sampling the solution in the receptor chamber via the sampling port. The concentration of Compound 1 was determined by quantitative HPLC analysis.

Row | IC50 (Human DAO) [µM] | IC50 (LOXL1; 30′ incubation) [µM] | IC50 (LOXL1; 2 h incubation) [µM] | IC50 (LOXL1; 4 h incubation) [µM] | IC50 [2] [µM] | Level in the receptor chamber ([4]; after 24 hours (FIG. 2)) | Permeability and diffusion through human skin ([4]; time dependent (FIG. 2)) | Compound | Reduction of collagen content (lysyl oxidase) | Effect on surface scarring [1] | Time dependent LOXL1 inhibition (LOXL1; apparent potency increasing with time) | Toxicity to the tester strain (bacterial background lawn, revertant colony counts) ([3]; 39.0625-5000 μg/plate, presence and absence of metabolic activation) | Precipitation on the basal agar plates ([3]; up to 5000 μg/plate, presence or absence of metabolic activation)
1 |  |  |  |  |  |  |  | N#CCCN [BAPN, β-aminopropionitrile, reference compound] | efficacious in reducing collagen content | measurable beneficial effect on surface scarring |  |  | 
2 | > 100 | 9.47 | 1.7 | 0.92 | > 30 | high levels | good permeability and diffusion | NC/C(=C\F)CS(=O)(=O)c1ccccc1 [Compound 1, (E)-3-fluoro-2-((phenylsulfonyl)methyl)prop-2-en-1-amine] |  |  | time dependent LOXL1 and LOXL2 inhibition | did not exhibit toxicity to the tester strain | did not precipitate on the basal agar plates
